Measured values taken from publication PMC10042540, “Targeting oncogenic KRasG13C with nucleotide-based covalent inhibitors” (eLife, 2023).

What was measured:
[1] = biological target: KRas; set-up: method as in Jeganathan et al., 2018; conditions: reversible affinity; ref Jeganathan et al., 2018; cited from earlier work
[2] = system: SOS; test: Guanine nucleotide-exchange factor assay (mantdGDP fluorescence); assay type: biochemical; conditions: 5 µM KRas1-169, 10 µM mantdGDP, 0.25 or 0.5 µM SOS
Procedure: SOS-catalysed nucleotide exchange was monitored at 25 °C in a FluoroMax-3 spectrofluorometer (excitation at 360 nm, emission at 440 nm) in 20 mM HEPES (pH 7.5), 100 mM NaCl, 2 mM MgCl2, and 1 mM TCEP. 5 µM KRas1-169 was mixed with 10 µM mantdGDP and subsequently with different concentrations of SOS (0.25 µM and 0.5 µM) (Figure 3A; Figure 3—figure supplement 1).

[3] = system: pAktS473; test: Electroporation into HeLa cells, western blot quantification; assay type: cell-based, human; conditions: for pAkt mean fold change: mean of cell lysates
Procedure: (§1) HeLa cells were obtained from the American Type Culture Collection (ATCC) and were cultured in DMEM medium (Gibco) supplemented with 10% fetal bovine serum (FBS) (PAN-Biotech) and 1% penicillin/streptomycin (Gibco). Cells were cultured in a humidified incubator at 37 °C in the presence of 5% CO2. The identity of the cells was validated by STR profiling and the cells were tested negative for mycoplasma contamination.
(§2) Electroporation of full-length KRas constructs (KRasWT, KRasG13C, KRasG13C-edaGDP, KRasG13C:acetyledaGDP and KRasG13C-edaGppCp) was performed based on the protocol described by [Alex et al., 2019] using the Neon Transfection System Kit (Thermo Fisher). For electroporation, 3 million cells per experiment were harvested by trypsinization, washed with PBS, and resuspended in 85 µL of the electroporation buffer R (Thermo Fisher). Increasing amounts of recombinant protein samples for each construct (0, 50, 100, 200 and 300 µg) were diluted 1:1 in buffer R followed by the addition of 30 µL of this protein master mix to the cell suspension. This cellular slurry was loaded into a […] Neon Pipette Tip (Thermo Fisher) and electroporated with 2x35 ms pulses at 1000 V. After electroporation, the cells were washed twice with PBS (15 mL) to remove non-internalized extracellular protein and the cell pellet was resuspended in 2 mL complete growth media. Cells were transferred into six-well tissue culture plates (Sarstedt) and incubated for 24 hr at 37 °C and 5% CO2 in a humidified incubator for recovery before being processed for western blotting analysis.
(§3) After recovery of the electroporation, cells were washed twice with ice-cold PBS and lysed in 100 µL of phosphatase and protease inhibitor containing RIPA buffer (Cell Signaling Technology). Cells were incubated on ice for 30 min and then harvested by scraping followed by centrifugation at 14,000 rpm for 10 min at 4 °C. Protein concentrations were determined using the Pierce BCA protein assay (Thermo) following the manufacturer’s recommended procedure. Equal amounts of protein (10 µg) were analyzed by SDS-PAGE and transferred to Immobilon-FL PVDF membranes (Merck Millipore) using Pierce 1-step transfer buffer (Thermo) and the Pierce Power Blotter (Thermo). Membranes were washed with ddH2O for 5 min, blocked with OdysseyBlocking Buffer TBS (Li-Cor) for 1 hr at room temperature and then incubated with primary antibodies diluted in OdysseyBlocking Buffer TBS overnight at 4 °C with gentle agitation. KRas (Sigma Aldrich, SAB1404011-100UG), pcRafS338 (CST, 9427), tAkt1 (CST, 2938), pAktS473 (CST, 4060), tErk (CST, 4696), pErkT202/Y204 (CST, 4370), pS6S235/236 (CST, 4858), and β-actin (CST, 4970/Sigma-Aldrich, A5441) antibodies were used to detect the individual proteins. After primary antibody incubation, membranes were washed three times with TBS-T (50 mM Tris, 150 mM NaCl, 0.05% Tween 20, pH 7.4) for 5 min before being incubated with secondary antibodies (anti-mouse IgG (H+L) (DyLight 680 Conjugate) (CST, 5470) / anti-rabbit IgG (H+L) (DyLight 800 4 X PEG Conjugate) (CST, 5151)) diluted in OdysseyBlocking Buffer TBS for 1 hr at room temperature with gentle agitation. After secondary antibody incubation, the membranes were washed three times for 5 min with TBS-T and then scanned using an OdysseyCLx imaging system (Li-Cor). Quantification of protein levels from western blots was performed using Empiria Studio (Li-Cor) (Figure 3B, C, Figure 3—figure supplements 6–9).

[4] = system: pErkT202/Y204; test: as above; assay type: cell-based, human; conditions: for pErk mean fold change: mean of cell lysates
Procedure: as §1, §2, §3

[5] = system: tErk; test: as above; assay type: cell-based, human; conditions: for tErk mean fold change: mean of cell lysates
Procedure: as §1, §2, §3

[6] = system: tAkt1; test: as above; assay type: cell-based, human; conditions: for tAkt mean fold change: mean of cell lysates
Procedure: as §1, §2, §3

[7] = system: pcRafS338; test: as above; assay type: cell-based, human; conditions: for pcRaf mean fold change: mean of cell lysates
Procedure: as §1, §2, §3

[8] = system: pS6S235/236; test: as above; assay type: cell-based, human; conditions: for pS6 mean fold change: mean of cell lysates
Procedure: as §1, §2, §3

[9] = system: Ras pathway (pcRaf, pAkt, pErk, pS6); test: Electroporation into HeLa cells, western blot of downstream signalling; assay type: cell-based, human; conditions: electroporation of 50-300 µg protein
Procedure: as §1, §2
After recovery of the electroporation, cells were washed twice with ice-cold PBS and lysed in 100 µL of phosphatase and protease inhibitor containing RIPA buffer (Cell Signaling Technology). Cells were incubated on ice for 30 min and then harvested by scraping followed by centrifugation at 14,000 rpm for 10 min at 4 °C. Protein concentrations were determined using the Pierce BCA protein assay (Thermo) following the manufacturer’s recommended procedure. Equal amounts of protein (10 µg) were analyzed by SDS-PAGE and transferred to Immobilon-FL PVDF membranes (Merck Millipore) using Pierce 1-step transfer buffer (Thermo) and the Pierce Power Blotter (Thermo). Membranes were washed with ddH2O for 5 min, blocked with OdysseyBlocking Buffer TBS (Li-Cor) for 1 hr at room temperature and then incubated with primary antibodies diluted in OdysseyBlocking Buffer TBS overnight at 4 °C with gentle agitation. […] Quantification of protein levels from western blots was performed using Empiria Studio (Li-Cor) (Figure 3B, C, Figure 3—figure supplements 6–9).

## Nc1nc2c(ncn2[C@@H]2O[C@H](COP(=O)(O)OP(=O)(O)OCCNC(=O)CCl)[C@@H](O)[C@H]2O)c(=O)[nH]1 [SML-8-73-1]
[1]
  Kd: ~140 nM

## KRasG13C:acetyledaGDP: KRasG13C non-covalently loaded with acetyledaGDP, control
[2]
  SOS-catalysed nucleotide exchange: efficiently catalysed nucleotide exchange
[3]; 50 µg, Cell lysate 1
  pAkt fold change: 0.68
[3]; 50 µg, Cell lysate 2
  pAkt fold change: 2.89
[3]; 50 µg, Cell lysate 3
  pAkt fold change: 3.02
[3]; 50 µg
  pAkt mean fold change: 2.20
[3]; 100 µg, Cell lysate 1
  pAkt fold change: 0.79
[3]; 100 µg, Cell lysate 2
  pAkt fold change: 4.04
[3]; 100 µg, Cell lysate 3
  pAkt fold change: 4.42
[3]; 100 µg
  pAkt mean fold change: 3.08
[3]; 200 µg, Cell lysate 1
  pAkt fold change: 1.19
[3]; 200 µg, Cell lysate 2
  pAkt fold change: 9.05
[3]; 200 µg, Cell lysate 3
  pAkt fold change: 6.20
[3]; 200 µg
  pAkt mean fold change: 5.48
[3]; 300 µg, Cell lysate 1
  pAkt fold change: 2.16
[3]; 300 µg, Cell lysate 2
  pAkt fold change: 13.30
[3]; 300 µg, Cell lysate 3
  pAkt fold change: 3.81
[3]; 300 µg
  pAkt mean fold change: 6.42
[4]; 50 µg, Cell lysate 1
  pErk fold change: 3.76
[4]; 50 µg, Cell lysate 2
  pErk fold change: 14.50
[4]; 50 µg, Cell lysate 3
  pErk fold change: 5.88
[4]; 50 µg
  pErk mean fold change: 8.05
[4]; 100 µg, Cell lysate 1
  pErk fold change: 5.77
[4]; 100 µg, Cell lysate 2
  pErk fold change: 17.10
[4]; 100 µg, Cell lysate 3
  pErk fold change: 6.22
[4]; 100 µg
  pErk mean fold change: 9.70
[4]; 200 µg, Cell lysate 1
  pErk fold change: 14.00
[4]; 200 µg, Cell lysate 2
  pErk fold change: 22.30
[4]; 200 µg, Cell lysate 3
  pErk fold change: 9.35
[4]; 200 µg
  pErk mean fold change: 15.22
[4]; 300 µg, Cell lysate 1
  pErk fold change: 17.00
[4]; 300 µg, Cell lysate 2
  pErk fold change: 29.30
[4]; 300 µg, Cell lysate 3
  pErk fold change: 10.30
[4]; 300 µg
  pErk mean fold change: 18.87
[5]; 50 µg, Cell lysate 1
  tErk fold change: 0.88
[5]; 50 µg, Cell lysate 2
  tErk fold change: 0.96
[5]; 50 µg, Cell lysate 3
  tErk fold change: 0.92
[5]; 50 µg
  tErk mean fold change: 0.92
[5]; 100 µg, Cell lysate 1
  tErk fold change: 0.68
[5]; 100 µg, Cell lysate 2
  tErk fold change: 0.93
[5]; 100 µg, Cell lysate 3
  tErk fold change: 0.86
[5]; 100 µg
  tErk mean fold change: 0.82
[5]; 200 µg, Cell lysate 1
  tErk fold change: 0.80
[5]; 200 µg, Cell lysate 2
  tErk fold change: 0.93
[5]; 200 µg, Cell lysate 3
  tErk fold change: 0.97
[5]; 200 µg
  tErk mean fold change: 0.90
[5]; 300 µg, Cell lysate 1
  tErk fold change: 0.62
[5]; 300 µg, Cell lysate 2
  tErk fold change: 0.90
[5]; 300 µg, Cell lysate 3
  tErk fold change: 1.12
[5]; 300 µg
  tErk mean fold change: 0.88
[6]; 50 µg, Cell lysate 1
  tAkt fold change: 0.92
[6]; 50 µg, Cell lysate 2
  tAkt fold change: 2.42
[6]; 50 µg, Cell lysate 3
  tAkt fold change: 1.53
[6]; 50 µg
  tAkt mean fold change: 1.62
[6]; 100 µg, Cell lysate 1
  tAkt fold change: 1.23
[6]; 100 µg, Cell lysate 2
  tAkt fold change: 2.03
[6]; 100 µg, Cell lysate 3
  tAkt fold change: 1.95
[6]; 100 µg
  tAkt mean fold change: 1.74
[6]; 200 µg, Cell lysate 1
  tAkt fold change: 1.36
[6]; 200 µg, Cell lysate 2
  tAkt fold change: 3.63
[6]; 200 µg, Cell lysate 3
  tAkt fold change: 1.80
[6]; 200 µg
  tAkt mean fold change: 2.26
[6]; 300 µg, Cell lysate 1
  tAkt fold change: 0.81
[6]; 300 µg, Cell lysate 2
  tAkt fold change: 4.18
[6]; 300 µg, Cell lysate 3
  tAkt fold change: 2.17
[6]; 300 µg
  tAkt mean fold change: 2.39
[7]; 50 µg, Cell lysate 1
  pcRaf fold change: 8.73
[7]; 50 µg, Cell lysate 2
  pcRaf fold change: 1.10
[7]; 50 µg, Cell lysate 3
  pcRaf fold change: 15.70
[7]; 50 µg
  pcRaf mean fold change: 8.51
[7]; 100 µg, Cell lysate 1
  pcRaf fold change: 8.39
[7]; 100 µg, Cell lysate 2
  pcRaf fold change: 1.51
[7]; 100 µg, Cell lysate 3
  pcRaf fold change: 22.70
[7]; 100 µg
  pcRaf mean fold change: 10.87
[7]; 200 µg, Cell lysate 1
  pcRaf fold change: 13.70
[7]; 200 µg, Cell lysate 2
  pcRaf fold change: 2.17
[7]; 200 µg, Cell lysate 3
  pcRaf fold change: 32.40
[7]; 200 µg
  pcRaf mean fold change: 16.09
[7]; 300 µg, Cell lysate 1
  pcRaf fold change: 10.10
[7]; 300 µg, Cell lysate 2
  pcRaf fold change: 3.88
[7]; 300 µg, Cell lysate 3
  pcRaf fold change: 30.30
[7]; 300 µg
  pcRaf mean fold change: 14.76
[8]; 50 µg, Cell lysate 1
  pS6 fold change: 1.20
[8]; 50 µg, Cell lysate 2
  pS6 fold change: 4.69
[8]; 50 µg, Cell lysate 3
  pS6 fold change: 4.24
[8]; 50 µg
  pS6 mean fold change: 3.38
[8]; 100 µg, Cell lysate 1
  pS6 fold change: 1.62
[8]; 100 µg, Cell lysate 2
  pS6 fold change: 7.62
[8]; 100 µg, Cell lysate 3
  pS6 fold change: 3.73
[8]; 100 µg
  pS6 mean fold change: 4.32
[8]; 200 µg, Cell lysate 1
  pS6 fold change: 3.38
[8]; 200 µg, Cell lysate 2
  pS6 fold change: 9.20
[8]; 200 µg, Cell lysate 3
  pS6 fold change: 7.24
[8]; 200 µg
  pS6 mean fold change: 6.61
[8]; 300 µg, Cell lysate 1
  pS6 fold change: 2.82
[8]; 300 µg, Cell lysate 2
  pS6 fold change: 9.13
[8]; 300 µg, Cell lysate 3
  pS6 fold change: 7.42
[8]; 300 µg
  pS6 mean fold change: 6.46
[9]
  downstream signalling (pcRaf, pAkt, pErk, pS6): activation of the Ras pathway comparable to KRasG13C was observed
